Reference: patent publication US8680113B2, “BMI-1 protein expression modulators” (PTC Therapeutics, Inc., priority 2008, dated 2014)
Where a name gives a salt, the structure may show the parent alone. Values belong to the compound of their own block, whether it stands above or below them.

Columns and labels:
Bmi-1 [1] = test: Sandwich ELISA Assay (Bmi-1 ELISA in HT-1080 cells); type: cell-based, human
Summary of the method: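 HT-1080 cells (8000/well) were treated with compounds in 0.5% final DMSO for 40-48 h at 37°C and then lysed. Bmi-1 in lysates was measured by sandwich ELISA: overnight capture at 4°C on mouse monoclonal, rabbit anti-Bmi-1 detection, HRP anti-rabbit, TMB. OD450 was read with an OD570 reference against a recombinant GST-Bmi-1 standard curve (0-8000 pg/mL).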

MCL-Jeko = test: Mantle Cell Lymphoma Assay: cytotoxicity, Jeko; type: cell-based; settings: 72 hrs in culture
Excerpt: (§1) MCL cell lines Jeko, Mino, and Rec-1 were provided by American Type Culture Collection: The Bioresource Center (Manassas, Va.). […] Carlsbad, Calif.) in T-75 culture flasks. Cell concentration was maintained between 2 to 3×10^5 cells/mL. Early passage cells (passages 2-4) were used for all experiments. Ficoll-Histopaque density sedimentation (Sigma Aldrich) was used for separation of debris and purification of cell lines prior to experiments. […] The cytotoxic effect of test compounds on the MCL-cell lines was assessed by measuring cell concentration and cell viability using a Beckman Coulter Vi-Cell Counter. Controls and treated cells were harvested and counted at day 3.

MCL-Mino = test: Mantle Cell Lymphoma Assay: cytotoxicity, Mino; type: cell-based; settings: 72 hrs in culture
Excerpt: as §1

MCL-Rec1 = test: Mantle Cell Lymphoma Assay: cytotoxicity, Rec-1; type: cell-based; settings: 72 hrs in culture
Excerpt: as §1

MM cell line = test: Multiple Myeloma Assay; type: cell-based; settings: 72 hrs in culture
[2] = test system: Jeko, Mino and Rec-1 cells; test: cells; type: cell-based; settings: 72 h, read-out: decrease in cell viability
Bmi-1 [3] = test: Cell Model Assay: Bmi-1 expression in HT1080; type: cell-based, human; settings: HT1080 (fibrosarcoma)
Method: (§2) Using assay conditions known to those skilled in the art, the ability of the compounds described herein to reduce Bmi-1 expression in HT1080 (fibrosarcoma), U87-MG (glioblastoma), T98G (glioblastoma), K562 (chronic myelogenous leukemia) and KG1 (acute myelogenous leukemia) cell lines was tested (at test compound concentrations calculated from the ELISA assay data shown in Example 1) compared to puromycin as a control to provide the EC50 values shown in Table 2. The term “ND” means that data was not determined.

Bmi-1 [4] = test: Cell Model Assay: Bmi-1 expression in U87-MG; type: cell-based; settings: U87-MG (glioblastoma)
Method: as §2

Bmi-1 [5] = test: Cell Model Assay: Bmi-1 expression in T98G; type: cell-based; settings: T98G (glioblastoma)
Method: as §2

Bmi-1 [6] = test: Cell Model Assay: Bmi-1 expression in K562; type: cell-based; settings: K562 (chronic myelogenous leukemia)
Method: as §2

Bmi-1 [7] = test: Cell Model Assay: Bmi-1 expression in KG1; type: cell-based; settings: KG1 (acute myelogenous leukemia)
Method: as §2

- melting point: 232 to 240 °C
Compound: COc1cc(Cl)c(Nc2nc(-c3c(C)nc4ncccn34)cs2)c(Cl)c1 (as salt: HBr) [Cpd 19, N-(2,6-dichloro-4-methoxyphenyl)-4-(2-methylimidazo[1,2-a]pyrimidin-3-yl)thiazol-2-amine]

Compound: Cc1nc2ncccn2c1-c1csc(Nc2ccc(Cl)cc2)n1 [Cpd 49, N-(4-chlorophenyl)-4-(2-methylimidazo[1,2-a]pyrimidin-3-yl)-1,3-thiazol-2-amine]
- IC50 (Bmi-1 [1]): < 0.5 µM
- Cell Concentration, MCL-Jeko (MCL-Jeko; dose 0.004 μM): 1.83 ± 0.01 ×10^6
- viability at 0.004 µM (MCL-Jeko; dose 0.004 μM, read-out: Cell Viability, MCL-Jeko): 74.33 ± 0.53%
- Cell Concentration, MCL-Jeko (MCL-Jeko; dose 0.037 μM): 1.94 ± 0.06 ×10^6
- viability at 0.037 µM (MCL-Jeko; dose 0.037 μM, read-out: Cell Viability, MCL-Jeko): 74.7 ± 1.08%
- Cell Concentration, MCL-Jeko (MCL-Jeko; dose 0.11 μM): 2.06 ± 0.04 ×10^6
- viability at 0.11 µM (MCL-Jeko; dose 0.11 μM, read-out: Cell Viability, MCL-Jeko): 78.73 ± 0.33%
- Cell Concentration, MCL-Jeko (MCL-Jeko; dose 0.33 μM): 1.82 ± 0.06 ×10^6
- viability at 0.33 µM (MCL-Jeko; dose 0.33 μM, read-out: Cell Viability, MCL-Jeko): 73.2 ± 0.58%
- Cell Concentration, MCL-Jeko (MCL-Jeko; dose 1 μM): 0.66 ± 0.05 ×10^6
- viability at 1 µM (MCL-Jeko; dose 1 μM, read-out: Cell Viability, MCL-Jeko): 39.6 ± 2.28%
- Cell Concentration, MCL-Jeko (MCL-Jeko; dose 3 μM): 0.06 ± 0.01 ×10^6
- viability at 3 µM (MCL-Jeko; dose 3 μM, read-out: Cell Viability, MCL-Jeko): 5.4 ± 0.61%
- viability at 0.004 µM (MCL-Mino; Homo sapiens, MINO, dose 0.004 μM, read-out: Cell Viability, MCL-Mino): 94.7 ± 0.44%
- viability at 0.037 µM (MCL-Mino; Homo sapiens, MINO, dose 0.037 μM, read-out: Cell Viability, MCL-Mino): 91.2 ± 1%
- viability at 0.11 µM (MCL-Mino; Homo sapiens, MINO, dose 0.11 μM, read-out: Cell Viability, MCL-Mino): 75.6 ± 1.49%
- viability at 0.33 µM (MCL-Mino; Homo sapiens, MINO, dose 0.33 μM, read-out: Cell Viability, MCL-Mino): 34.4 ± 2.46%
- viability at 1 µM (MCL-Mino; Homo sapiens, MINO, dose 1 μM, read-out: Cell Viability, MCL-Mino): 15.3 ± 1.13%
- viability at 3 µM (MCL-Mino; Homo sapiens, MINO, dose 3 μM, read-out: Cell Viability, MCL-Mino): 12.7 ± 1.47%
- Cell Concentration, MCL-Mino (MCL-Mino; dose 0.004 μM): 1.87 ± 0.04 ×10^6
- Cell Concentration, MCL-Mino (MCL-Mino; dose 0.037 μM): 1.72 ± 0.09 ×10^6
- Cell Concentration, MCL-Mino (MCL-Mino; dose 0.11 μM): 0.97 ± 0.06 ×10^6
- Cell Concentration, MCL-Mino (MCL-Mino; dose 0.33 μM): 0.15 ± 0.06 ×10^6
- Cell Concentration, MCL-Mino (MCL-Mino; dose 1 μM): 0.07 ± 0.01 ×10^6
- Cell Concentration, MCL-Mino (MCL-Mino; dose 3 μM): 0.06 ± 0.01 ×10^6
- viability at 0.004 µM (MCL-Rec1; Homo sapiens, Rec1, dose 0.004 μM, read-out: Cell Viability, MCL-Rec1): 89.2 ± 0.33%
- viability at 0.037 µM (MCL-Rec1; Homo sapiens, Rec1, dose 0.037 μM, read-out: Cell Viability, MCL-Rec1): 89.07 ± 0.33%
- viability at 0.11 µM (MCL-Rec1; Homo sapiens, Rec1, dose 0.11 μM, read-out: Cell Viability, MCL-Rec1): 90.07 ± 0.1%
- viability at 0.33 µM (MCL-Rec1; Homo sapiens, Rec1, dose 0.33 μM, read-out: Cell Viability, MCL-Rec1): 81.93 ± 0.03%
- viability at 1 µM (MCL-Rec1; Homo sapiens, Rec1, dose 1 μM, read-out: Cell Viability, MCL-Rec1): 51 ± 1.83%
- viability at 3 µM (MCL-Rec1; Homo sapiens, Rec1, dose 3 μM, read-out: Cell Viability, MCL-Rec1): 12 ± 0.95%
- Cell Concentration, MCL-Rec1 (MCL-Rec1; dose 0.004 μM): 0.83 ± 0.01 ×10^6
- Cell Concentration, MCL-Rec1 (MCL-Rec1; dose 0.037 μM): 0.87 ± 0.01 ×10^6
- Cell Concentration, MCL-Rec1 (MCL-Rec1; dose 0.11 μM): 0.84 ± 0.01 ×10^6
- Cell Concentration, MCL-Rec1 (MCL-Rec1; dose 0.33 μM): 0.58 ± 0.00 ×10^6
- Cell Concentration, MCL-Rec1 (MCL-Rec1; dose 1 μM): 0.21 ± 0.01 ×10^6
- Cell Concentration, MCL-Rec1 (MCL-Rec1; dose 3 μM): 0.04 ± 0.00 ×10^6
- Cell Concentration, MM cell line (MM cell line; dose 0.004 μM): 1.22 ± 0.05 ×10^6
- viability at 0.004 µM (MM cell line; dose 0.004 μM): 89.63 ± 0.35%
- Cell Concentration, MM cell line (MM cell line; dose 0.037 μM): 1.09 ± 0.05 ×10^6
- viability at 0.037 µM (MM cell line; dose 0.037 μM): 89.53 ± 0.46%
- Cell Concentration, MM cell line (MM cell line; dose 0.11 μM): 0.85 ± 0.05 ×10^6
- viability at 0.11 µM (MM cell line; dose 0.11 μM): 84.7 ± 0.88%
- Cell Concentration, MM cell line (MM cell line; dose 0.33 μM): 0.38 ± 0.01 ×10^6
- viability at 0.33 µM (MM cell line; dose 0.33 μM): 69.6 ± 0.85%
- Cell Concentration, MM cell line (MM cell line; dose 1 μM): 0.21 ± 0.01 ×10^6
- viability at 1 µM (MM cell line; dose 1 μM): 55.5 ± 2.4%
- Cell Concentration, MM cell line (MM cell line; dose 3 μM): 0.22 ± 0.01 ×10^6
- viability at 3 µM (MM cell line; dose 3 μM): 55.5 ± 1.79%
- cytotoxicity at 0.08 µM [2]: 70 to 90%

- IC50 (Bmi-1 [1]): < 0.5 µM
- EC50 (Bmi-1 [3]): 0.41 µM
- EC50 (Bmi-1 [4]): 1.2 µM
- EC50 (Bmi-1 [5]): 0.091 µM
- EC50 (Bmi-1 [6]): 0.055 µM
- EC50 (Bmi-1 [7]): 0.128 µM
Compound: COc1cc(C)c(Nc2nc(-c3cnc4ccc(Cl)cn34)cs2)c(C)c1 [Cpd 27, 4-(6-chloroimidazo[1,2-a]pyridine-3-yl)-N-(4-methoxy-2,6-dimethylphenyl)thiazol-2-amine]
- Cell Concentration, MCL-Jeko (MCL-Jeko; dose 0.004 μM): 1.98 ± 0.03 ×10^6
- Cell Concentration, MCL-Jeko (MCL-Jeko; dose 0.037 μM): 1.99 ± 0.02 ×10^6
- Cell Concentration, MCL-Jeko (MCL-Jeko; dose 0.11 μM): 1.96 ± 0.05 ×10^6
- Cell Concentration, MCL-Jeko (MCL-Jeko; dose 0.33 μM): 1.77 ± 0.02 ×10^6
- Cell Concentration, MCL-Jeko (MCL-Jeko; dose 1 μM): 1.46 ± 0.02 ×10^6
- Cell Concentration, MCL-Jeko (MCL-Jeko; dose 3 μM): 0.34 ± 0.04 ×10^6
- Cell Concentration, MCL-Mino (MCL-Mino; dose 0.004 μM): 0.62 ± 0.02 ×10^6
- Cell Concentration, MCL-Mino (MCL-Mino; dose 0.037 μM): 0.64 ± 0.01 ×10^6
- Cell Concentration, MCL-Mino (MCL-Mino; dose 0.11 μM): 0.59 ± 0.03 ×10^6
- Cell Concentration, MCL-Mino (MCL-Mino; dose 0.33 μM): 0.57 ± 0.01 ×10^6
- Cell Concentration, MCL-Mino (MCL-Mino; dose 1 μM): 0.41 ± 0.00 ×10^6
- Cell Concentration, MCL-Mino (MCL-Mino; dose 3 μM): 0.09 ± 0.00 ×10^6
- Cell Concentration, MCL-Rec1 (MCL-Rec1; dose 0.004 μM): 1.66 ± 0.06 ×10^6
- Cell Concentration, MCL-Rec1 (MCL-Rec1; dose 0.037 μM): 1.65 ± 0.03 ×10^6
- Cell Concentration, MCL-Rec1 (MCL-Rec1; dose 0.11 μM): 1.63 ± 0.04 ×10^6
- Cell Concentration, MCL-Rec1 (MCL-Rec1; dose 0.33 μM): 1.53 ± 0.01 ×10^6
- Cell Concentration, MCL-Rec1 (MCL-Rec1; dose 1 μM): 1.24 ± 0.03 ×10^6
- Cell Concentration, MCL-Rec1 (MCL-Rec1; dose 3 μM): 0.09 ± 0.01 ×10^6
- Cell Concentration, MM cell line (MM cell line; dose 0.004 μM): 1.46 ± 0.01 ×10^6
- Cell Concentration, MM cell line (MM cell line; dose 0.037 μM): 1.36 ± 0.07 ×10^6
- Cell Concentration, MM cell line (MM cell line; dose 0.11 μM): 1.30 ± 0.01 ×10^6
- Cell Concentration, MM cell line (MM cell line; dose 0.33 μM): 0.80 ± 0.01 ×10^6
- Cell Concentration, MM cell line (MM cell line; dose 1 μM): 0.17 ± 0.00 ×10^6
- Cell Concentration, MM cell line (MM cell line; dose 3 μM): 0.2 ± 0.05 ×10^6
